Data reported in ChEMBL document CHEMBL4616678, “Design, Synthesis, and Physicochemical and Pharmacological Profiling of 7-Hydroxy-5-oxopyrazolo[4,3-b]pyridine-6-carboxamide Derivatives with Antiosteoarthritic Activity In Vivo” (J Med Chem, 2020).
Converted amounts (≈) assume the structure as drawn. The source made the active and inactive calls.

What was measured:
[1] = Cytotoxicity against human NHAC-kn assessed as reduction in cell viability at 7.5 uM after 1 day by Neutral red dye-based UV-visible spectrophotometer analysis (reference value: 46 +/- 6%); assay type: functional
[2] = Induction of extracellular matrix production in human NHAC-kn cells assessed as HYP level at 7.5 uM after 14 days by UV-visible spectrophotometer analysis (reference value: 14.2 +/- 0.4 ug); assay type: functional
[3] = Induction of extracellular matrix production in human NHAC-kn cells assessed as sGAG level at 7.5 uM after 14 days by UV-visible spectrophotometer analysis (reference value: 12.0 +/- 0.4 ug); assay type: functional
Rattus norvegicus [4] = experiment: Analgesic activity in MIA induced Wistar rat assessed as differences in forces applied between rear left and rear right injured paws at 1 mg/kg, ip injection after 60 mins by KWB test; assay type: functional, organism-based
Rattus norvegicus [5] = experiment: Analgesic activity in MIA induced Wistar rat assessed as hind limb withdrawal threshold at 1 mg/kg, ip injection after 300 mins in presence of AM-630 by PAM test; assay type: functional, organism-based
[6] = Cytotoxicity against human NHAC-kn assessed as reduction in cell viability at 7.5 uM after 14 days by Neutral red dye-based UV-visible spectrophotometer analysis (reference value: 100 +/- 11%); assay type: functional
NIH3T3 = experiment: Cytotoxicity against mouse NIH/3T3 assessed as reduction in cell viability after 1 to 14 days by Neutral red dye-based UV-visible spectrophotometer analysis; assay type: functional
Rattus norvegicus [7] = experiment: Analgesic activity in MIA induced Wistar rat assessed as differences in forces applied between rear left and rear right injured paws at 1 mg/kg, ip injection after 60 mins in presence of AM-630 by KWB test; assay type: functional, organism-based
[8] = Cytotoxicity against human NHAC-kn assessed as reduction in cell viability at 7.5 uM after 7 days by Neutral red dye-based UV-visible spectrophotometer analysis (reference value: 73 +/- 8%); assay type: functional
[9] = Ionization Constants, pKa of the compound by UV-vis spectra analysis; assay type: physicochemical
Cannabinoid receptor 2 [10] = target: T1, Cannabinoid receptor 2 (Homo sapiens, UniProt P34972); experiment: Agonist activity at recombinant human CB2R expressed in CHOK1 cells assessed as inhibition of NKH477-stimulated intracellular cAMP levels after 30 mins by chemiluminescent detection based cAMP Hunter assay; assay type: functional, cell-based, CHO-K1
[11] = Induction of extracellular matrix production in human NHAC-kn cells assessed as sGAG level at 7.5 uM after 1 day by UV-visible spectrophotometer analysis (reference value: 9.3 +/- 0.2 ug); assay type: functional
[12] = Kinetic solubility of the compound at pH 7.4 by HPLC-UV method; assay type: physicochemical; conditions: buffer, read-out: Kinetic_solubility
Cannabinoid receptor 2 [13] = target: T1, Cannabinoid receptor 2; experiment: Displacement of [3H]-CP-55,940 from recombinant human CB2R expressed in HEK293 cell membranes
[14] = Induction of extracellular matrix production in human NHAC-kn cells assessed as sGAG/HYP level at 7.5 uM after 7 days by UV-visible spectrophotometer analysis (reference value: 0.8 +/- 0.2 ug); assay type: functional
Rattus norvegicus [15] = experiment: Analgesic activity in MIA induced Wistar rat assessed as hind limb withdrawal threshold at 1 mg/kg, ip injection after 300 mins by PAM test; assay type: functional, organism-based
[16] = Cytotoxicity against human NHAC-kn assessed as reduction in cell viability after 1 to 14 days by Neutral red dye-based UV-visible spectrophotometer analysis; assay type: functional
[17] = Induction of extracellular matrix production in human NHAC-kn cells assessed as sGAG/HYP level at 7.5 uM after 1 day by UV-visible spectrophotometer analysis (reference value: 0.9 +/- 0.1 ug); assay type: functional
Cannabinoid receptor 1 = Cannabinoid receptor 1 (Homo sapiens, UniProt P21554); experiment: Displacement of [3H]-CP-55,940 from recombinant human CB1R expressed in HEK293 cell membranes
[18] = Induction of extracellular matrix production in human NHAC-kn cells assessed as sGAG/HYP level at 7.5 uM after 14 days by UV-visible spectrophotometer analysis (reference value: 0.9 +/- 0.2 ug); assay type: functional
Cannabinoid receptor 2 [19] = target: T1, Cannabinoid receptor 2; experiment: Antagonist activity at TNF-alpha induced CB2R in human HC-OA cells assessed as decreased in IL-1beta mRNA production preincubated for 1 hr followed by TNF-alpha stimulation measured after 5 hrs in presence of AM-630 by RT-PCR analysis; assay type: cell-based
Cannabinoid receptor 2 [20] = target: T1, Cannabinoid receptor 2; experiment: Antagonist activity at TNF-alpha induced CB2R in human HC-OA cells assessed as decreased in IL-1beta mRNA production preincubated for 1 hr followed by TNF-alpha stimulation measured after 5 hrs by RT-PCR analysis; assay type: cell-based
[21] = Induction of extracellular matrix production in human NHAC-kn cells assessed as HYP level at 7.5 uM after 7 days by UV-visible spectrophotometer analysis (reference value: 13.2 +/- 0.3 ug); assay type: functional
[22] = Induction of extracellular matrix production in human NHAC-kn cells assessed as HYP level at 7.5 uM after 1 day by UV-visible spectrophotometer analysis (reference value: 9.9 +/- 0.3 ug); assay type: functional
[23] = Kinetic solubility of the compound at pH 1.0 by HPLC-UV method; assay type: physicochemical; conditions: buffer, read-out: Kinetic_solubility
[24] = Lipophilicity, log P of the compound by UV-vis spectra analysis; assay type: physicochemical; conditions: octanol/water
[25] = Induction of extracellular matrix production in human NHAC-kn cells assessed as sGAG level at 7.5 uM after 7 days by UV-visible spectrophotometer analysis (reference value: 11.2 +/- 0.4 ug); assay type: functional
Cannabinoid receptor 2 [26] = target: T1, Cannabinoid receptor 2; experiment: Inverse agonist activity at recombinant human CB2R expressed in CHOK1 cells assessed as increase in NKH477-stimulated intracellular cAMP levels after 30 mins by chemiluminescent based cAMP Hunter assay; assay type: functional, cell-based, CHO-K1
Homo sapiens = species: Homo sapiens; experiment: Selectivity index, ratio of Ki for recombinant human CB1R expressed in HEK293 cell membranes to Ki for recombinant human CB2R expressed in HEK293 cell membranes; assay type: cell-based

Cannabinoid receptor 1, sequence (P21554 whole entry): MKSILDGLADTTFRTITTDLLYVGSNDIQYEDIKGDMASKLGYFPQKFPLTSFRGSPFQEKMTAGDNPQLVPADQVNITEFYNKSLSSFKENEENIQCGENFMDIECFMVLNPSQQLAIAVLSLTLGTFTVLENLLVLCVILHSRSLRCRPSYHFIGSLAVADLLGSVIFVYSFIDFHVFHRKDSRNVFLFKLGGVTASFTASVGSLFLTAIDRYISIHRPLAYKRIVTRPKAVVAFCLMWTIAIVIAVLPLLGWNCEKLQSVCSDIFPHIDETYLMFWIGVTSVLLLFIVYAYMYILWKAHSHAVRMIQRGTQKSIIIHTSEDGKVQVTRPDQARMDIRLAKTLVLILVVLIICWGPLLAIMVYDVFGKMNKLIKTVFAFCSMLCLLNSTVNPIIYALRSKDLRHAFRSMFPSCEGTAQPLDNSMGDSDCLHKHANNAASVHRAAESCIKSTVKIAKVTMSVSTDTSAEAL
T1 sequence (P34972 whole entry): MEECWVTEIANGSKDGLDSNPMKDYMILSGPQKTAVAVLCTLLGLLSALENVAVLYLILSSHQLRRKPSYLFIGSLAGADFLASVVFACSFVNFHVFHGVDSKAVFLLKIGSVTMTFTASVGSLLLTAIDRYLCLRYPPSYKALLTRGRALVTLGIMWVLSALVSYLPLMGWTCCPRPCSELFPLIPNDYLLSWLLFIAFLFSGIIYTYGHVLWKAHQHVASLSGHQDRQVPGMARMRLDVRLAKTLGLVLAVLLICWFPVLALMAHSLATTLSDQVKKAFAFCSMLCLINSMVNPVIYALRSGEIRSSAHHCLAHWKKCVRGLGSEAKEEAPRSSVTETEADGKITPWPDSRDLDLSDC

Compound: CCCCN1C(=O)C(C(=O)NC23CC4CC(CC(C4)C2)C3)=C(O)C2C1C=NN2C (centres undefined)
- Activity [1]: 51%
- Activity [2]: 13.9%
- Activity [3]: 14.2%
- Activity (Rattus norvegicus [4]): Active
- Activity (Rattus norvegicus [5]): inactive
- Activity [6]: 94%
- IC50 (NIH3T3): 25000 nM
- Activity (Rattus norvegicus [7]): inactive
- Activity [8]: 68%
- pKa [9]: 8
- EC50 (Cannabinoid receptor 2 [10]): 110 nM
- Activity [11]: 8.9%
- solubility kinetic [12]: 0.49 µg/mL (≈ 1.22 µM)
- Ki (Cannabinoid receptor 2 [13]): 1.8 nM
- Activity [14]: 1%
- Activity (Rattus norvegicus [15]): Active
- IC50 [16]: 12500 nM
- Activity [17]: 0.9%
- Ki (Cannabinoid receptor 1): 69 nM
- Activity [18]: 1%
- Activity (Cannabinoid receptor 2 [19]): inactive
- Activity (Cannabinoid receptor 2 [20]): Active
- Activity [21]: 12.9%
- Activity [22]: 10.1%
- solubility kinetic [23]: 0.13 µg/mL (≈ 0.325 µM)
- logP [24]: 5.3
- Activity [25]: 12.6%

Compound: CC(=O)OCCCCn1c(=O)c(C(=O)NC23CC4CC(CC(C4)C2)C3)c(O)c2nn(C)cc21
- EC50 (Cannabinoid receptor 2 [26]): 2080 nM
- IC50 (NIH3T3): 25000 nM
- solubility kinetic [12]: 1.3 µg/mL (≈ 2.85 µM)
- Ki (Cannabinoid receptor 2 [13]): 17.3 nM
- IC50 [16]: 7500 nM
- Ki (Cannabinoid receptor 1): > 1000 nM

Compound: CCCCn1c(=O)c(C(=O)NC23CC4CC(CC(O)(C4)C2)C3)c(O)c2nn(C)cc21
- IC50 (NIH3T3): 7500 nM
- pKa [9]: 7.9
- solubility kinetic [12]: 20.9 µg/mL (≈ 50.4 µM)
- Ki (Cannabinoid receptor 2 [13]): 10.6 nM
- IC50 [16]: 2500 nM
- Ki (Cannabinoid receptor 1): > 1000 nM
- solubility kinetic [23]: 15 µg/mL (≈ 36.2 µM)
- logP [24]: 4.08

Compound: CCCCn1c(=O)c(C(=O)NC23CC4CC(CC(C4)C2)C3)c(O)c2nn(CCO)cc21
- IC50 (NIH3T3): 12500 nM
- solubility kinetic [12]: 2.1 µg/mL (≈ 4.9 µM)
- Ki (Cannabinoid receptor 2 [13]): 18.4 nM
- IC50 [16]: 2500 nM
- Ki (Cannabinoid receptor 1): > 1000 nM
- solubility kinetic [23]: 1.6 µg/mL (≈ 3.73 µM)

Compound: CCCCCn1c(=O)c(C(=O)NC23CC4CC(CC(C4)C2)C3)c(O)c2nn(CCO)cc21
- EC50 (Cannabinoid receptor 2 [26]): 880 nM
- IC50 (NIH3T3): 7500 nM
- solubility kinetic [12]: 0.7 µg/mL (≈ 1.58 µM)
- Ki (Cannabinoid receptor 2 [13]): 4.8 nM
- IC50 [16]: 2500 nM
- Ki (Cannabinoid receptor 1): 108 nM
- solubility kinetic [23]: 0.38 µg/mL (≈ 0.859 µM)

Compound: CCCCCn1c(=O)c(C(=O)NC23CC4CC(CC(C4)C2)C3)c(O)c2nn(C)cc21
- EC50 (Cannabinoid receptor 2 [26]): 1180 nM
- Ratio Ki (Homo sapiens): 167
- solubility kinetic [12]: 1.9 µg/mL (≈ 4.61 µM)
- Ki (Cannabinoid receptor 2 [13]): 0.18 nM
- Ki (Cannabinoid receptor 1): 33.5 nM
- solubility kinetic [23]: 2.9 µg/mL (≈ 7.03 µM)

Compound: Cn1cc2c(n1)c(O)c(C(=O)NC13CC4CC(CC(C4)C1)C3)c(=O)n2CCCCF
- EC50 (Cannabinoid receptor 2 [26]): 270 nM
- IC50 (NIH3T3): 12500 nM
- solubility kinetic [12]: 0.8 µg/mL (≈ 1.92 µM)
- Ki (Cannabinoid receptor 2 [13]): 2.1 nM
- IC50 [16]: 7500 nM
- Ki (Cannabinoid receptor 1): 532 nM
- solubility kinetic [23]: 0.6 µg/mL (≈ 1.44 µM)

Compound: CCCn1c(=O)c(C(=O)NC23CC4CC(CC(C4)C2)C3)c(O)c2nn(CCOC(C)=O)cc21
- Ratio Ki (Homo sapiens): 5
- solubility kinetic [12]: 1.1 µg/mL (≈ 2.41 µM)
- Ki (Cannabinoid receptor 2 [13]): 186 nM
- Ki (Cannabinoid receptor 1): > 1000 nM

Compound: CN1N=CC2C1C(O)=C(C(=O)NC13CC4CC(CC(C4)C1)C3)C(=O)N2CCCCF (centres undefined)
- IC50 (NIH3T3): 12500 nM
- EC50 (Cannabinoid receptor 2 [10]): 21.9 nM
- solubility kinetic [12]: 1.5 µg/mL (≈ 3.58 µM)
- Ki (Cannabinoid receptor 2 [13]): 1.4 nM
- IC50 [16]: 12500 nM
- Ki (Cannabinoid receptor 1): 39.3 nM
- solubility kinetic [23]: 0.7 µg/mL (≈ 1.67 µM)

Compound: CCCCCn1c(=O)c(C(=O)NC23CC4CC(CC(O)(C4)C2)C3)c(O)c2nn(CCO)cc21
- IC50 (NIH3T3): 7500 nM
- solubility kinetic [12]: 15 µg/mL (≈ 32.7 µM)
- Ki (Cannabinoid receptor 2 [13]): 57.1 nM
- IC50 [16]: 2500 nM
- Ki (Cannabinoid receptor 1): 492 nM
- solubility kinetic [23]: 9.7 µg/mL (≈ 21.2 µM)
